Measurements reported in patent US12391685B2, “Inhibitors of RNA-guided nuclease target binding and uses thereof” (THE BROAD INSTITUTE, INC., priority 2018, dated 2025).

What follows are molecules tested against T1, dCas9-based transcription-activation complex (Streptococcus pyogenes serotype M1, UniProt Q99ZW2, D10A, form not given) (assay: dCas9-based transcription activation of HBG1 in HEK293FT cells (RT-qPCR)). Settings: read-out: EC50, inhibition of the transcription activation complex.
T1 construct: "dSpCas9|Feng Zhang lab|NA"; The MS2-p65-HSF1(-GFP) effector is a separate chain recruited through MS2 aptamers in the sgRNA
Assay type: cell-based, S. pyogenes
Experimental: Transcription activation experiments and quantitative RT-PCR analyses. HEK293FT cells were maintained in high glucose DMEM with glutamax (Life Technologies) and supplemented with 10% FBS (Life Technologies), 1% penicillin-streptomycin (Life Technologies) and 1 mM sodium pyruvate (Life Technologies). For transcription activation experiments, 20,000 cells/well were plated in a poly D-lysine-coated 96-well plate. The cells were transiently transfected with a 1:1:1 mass ratio of the dCas9 plasmid, MS2-P65-HSF1 effector plasmid and the sgRNA plasmid targeting the HBG1 gene or an RFP control plasmid. A total of 0.3 μg plasmid DNA was transfected using Lipofectamine 2000 (Life Technologies) according to manufacturer's protocol. Immediately after transfection, the cells were treated with an appropriate dose of the small-molecule inhibitors. A DMSO solution of compound (20 mM) was resuspended in the 10% FBS containing growth media and thoroughly mixedbefore adding to the cells. After 48 h the cells were lysed and 5 μL of the cell lysate was used to perform reverse transcription using the RevertAid RT Reverse Transcription Kit (Thermo Fischer Scientific) as described by Joung J. et al. qPCR reactions were performed to quantify RNA expression using the TaqMan probes (Life Technologies, HBG1/HBG2: Hs00361131_g1, ACTB: Hs01060665_g1) and TaqMan Fast Advanced Master Mix (Life Technologies) in 5 μL multiplexed reactions and 384-well format using the LightCycler 480 Instrument II (Roche). For each sample, four technical replicates were performed. Data were analyzed using the LightCycler 480 software (Roche) by the ΔΔCt method: Ct values for the gene of interest (HBG1) were normalized to Ct values for the housekeeping gene (ACTB), and fold-changes in the expression level of gene of interest were normalized to RFP-transfected control. The data is reported as mean±S.E.M. for technical replicates.
Work on `CN1c2ccc(C#Cc3cccnc3)cc2[C@H]2[C@H](CCN2C(=O)Nc2cc(F)ccc2F)[C@@H]1CO` [BRD0048, (3aS,4R,9bR)—N-(2,5-difluorophenyl)-4-(hydroxymethyl)-5-methyl-8-(pyridin-3-ylethynyl)-2,3,3a,4,5,9b-hexahydro-1H-pyrrolo[3,2-c]quinoline-1-carboxamide] yielded an EC50 of 9 µM.

These molecules were tested against SpCas9 (Streptococcus pyogenes serotype M1, UniProt Q99ZW2) (assay: eGFP-disruption assay in U2OS.eGFP.PEST cells). Settings: screen of structural analogs of BRD7087; 15 μM compound, 24 h, U2OS.eGFP.PEST cells.
Chain of SpCas9 (Q99ZW2 whole entry): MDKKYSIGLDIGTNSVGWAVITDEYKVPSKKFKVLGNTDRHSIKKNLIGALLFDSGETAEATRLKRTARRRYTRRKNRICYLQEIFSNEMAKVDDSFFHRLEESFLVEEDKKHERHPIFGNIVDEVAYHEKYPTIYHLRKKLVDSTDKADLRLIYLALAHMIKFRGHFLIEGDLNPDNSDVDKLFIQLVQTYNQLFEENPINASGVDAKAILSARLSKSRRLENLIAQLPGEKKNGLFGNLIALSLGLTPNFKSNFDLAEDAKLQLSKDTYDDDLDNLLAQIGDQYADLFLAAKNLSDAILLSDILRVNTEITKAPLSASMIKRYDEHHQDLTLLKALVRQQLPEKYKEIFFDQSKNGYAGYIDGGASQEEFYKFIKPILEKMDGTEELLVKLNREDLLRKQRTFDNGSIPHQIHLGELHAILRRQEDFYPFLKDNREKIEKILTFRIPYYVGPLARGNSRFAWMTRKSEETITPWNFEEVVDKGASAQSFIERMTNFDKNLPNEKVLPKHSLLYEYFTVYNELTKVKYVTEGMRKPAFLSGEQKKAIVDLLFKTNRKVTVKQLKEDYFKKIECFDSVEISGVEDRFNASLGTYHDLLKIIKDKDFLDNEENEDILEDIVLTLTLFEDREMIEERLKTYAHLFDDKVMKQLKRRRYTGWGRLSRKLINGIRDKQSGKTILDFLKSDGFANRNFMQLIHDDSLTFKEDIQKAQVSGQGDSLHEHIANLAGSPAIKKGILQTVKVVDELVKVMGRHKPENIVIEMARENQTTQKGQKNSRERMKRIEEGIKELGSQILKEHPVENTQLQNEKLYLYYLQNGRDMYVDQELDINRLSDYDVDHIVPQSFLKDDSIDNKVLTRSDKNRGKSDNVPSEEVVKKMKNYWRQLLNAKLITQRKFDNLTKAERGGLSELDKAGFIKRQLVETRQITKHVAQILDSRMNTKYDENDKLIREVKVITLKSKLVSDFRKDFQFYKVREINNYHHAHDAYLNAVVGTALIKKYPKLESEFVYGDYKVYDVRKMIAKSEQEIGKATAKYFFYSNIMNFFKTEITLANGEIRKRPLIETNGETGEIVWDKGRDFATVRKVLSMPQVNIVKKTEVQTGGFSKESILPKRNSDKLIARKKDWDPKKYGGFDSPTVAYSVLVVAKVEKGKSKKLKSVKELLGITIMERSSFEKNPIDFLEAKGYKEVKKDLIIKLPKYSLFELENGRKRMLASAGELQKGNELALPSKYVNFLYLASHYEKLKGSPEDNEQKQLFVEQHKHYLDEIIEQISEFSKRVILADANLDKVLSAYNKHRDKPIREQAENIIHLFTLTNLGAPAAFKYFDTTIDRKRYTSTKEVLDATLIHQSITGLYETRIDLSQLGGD
Assay type: cell-based, S. pyogenes
Design: host or cells: U2OS.eGFP.PEST
Experimental: SpCas9 nuclease activity in eGFP-disruption assay. Approximately 200,000 U2OS.eGFP-PEST cells were nucleofected following two different methods either by nucleofecting plasmids or RNP using the SE Cell Line 4D-Nucleofector™ X Kit (Lonza) according to the manufacturer's protocol. In the plasmid nucleofection method, cells were nucleofected either with 440 ng of SpCas9 (Addgene Plasmid #43861) or 400 ng of SpCas9 along with 40 ng of sgRNA (pFYF1320 eGFP Site #1, Addgene Plasmid #47511). Cells nucleofected only with SpCas9-expressing plasmid were used as the transfection control. In the RNP nucleofection method, either […] SpCas9 or 20 pmol preformed SpCas9:gRNA (eGFP Site #1) complex were nucleofected. Approximately 20,000 transfected cells/well were plated in 4 replicates in a 96-well plate (Corning® 3904). Cells were incubated with the indicated amount of compound or DMSO for 24 h post transfection. A DMSO solution of compound (20 mM) was resuspended in the 10% FBS containing growth media and thoroughly mixed before adding to the cells. Cells were then fixed using 4% paraformaldehyde and imaged with the HCS NuclearMask™ Blue Stain (Life Technologies) as the nuclear counter-staining agent. Imaging was performed with an ImageXpress Micro automated microscope (Molecular Devices) at 10× magnification under three excitation channels (blue, green and red) acquiring nine sites per well. Images were analyzed using MetaXpress software and data were plotted using GraphPad Prism 6.
The Z′-value was calculated using the equation (1), where σ1 and σ2 are the standard deviations of DMSO control and SpCas9:gRNA control respectively. μ1 and μ2 are the mean % GFP^− cell population for DMSO control and SpCas9:gRNA control, respectively.
`COCC(=O)N1CC[C@@H]2[C@H](CO)Nc3ccc(C#Cc4cccc(F)c4)cc3[C@@H]21` [BRD-K09759494] was tested, and the “Average Inhibition activity” value was 50.9, the “Inhibition activity Rep 1” value was 51.1 and the “Inhibition activity Rep 2” value was 50.7. `COc1ccccc1CN1CC[C@@H]2[C@H]1c1cc(C#Cc3ccccc3)ccc1N[C@@H]2CO` [BRD-K18260949] was tested, and the “Average Inhibition activity” value was 49.5, the “Inhibition activity Rep 1” value was 49.8 and the “Inhibition activity Rep 2” value was 49.1. `COc1ccccc1C#Cc1ccc2c(c1)[C@H]1NCC[C@H]1[C@@H](CO)N2` [BRD-K39870434] was tested, and the “Average Inhibition activity” value was 68.1, the “Inhibition activity Rep 1” value was 53.7 and the “Inhibition activity Rep 2” value was 82.5. In the case of `CN1c2ccc(-c3cccc(C#N)c3)cc2[C@H]2[C@H](CCN2C(=O)C2CCCCC2)[C@H]1CO` [BRD-K53346571], the “Average Inhibition activity” value is reported as 52.7, the “Inhibition activity Rep 1” value is reported as 49.1 and the “Inhibition activity Rep 2” value is reported as 56.3. For `COc1ccccc1-c1ccc2c(c1)[C@H]1[C@H](CCN1C(=O)CN1CCOCC1)[C@H](CO)N2C` [BRD-K22244182], the “Average Inhibition activity” value was 50.3, the “Inhibition activity Rep 1” value was 57.2 and the “Inhibition activity Rep 2” value was 43.4. With `COc1ccc(S(=O)(=O)N2CC[C@@H]3[C@@H](CO)N(C)c4ccc(-c5ccc(F)cc5)cc4[C@@H]32)cc1` [BRD-K16827616] the “Average Inhibition activity” value was 60.5, the “Inhibition activity Rep 1” value was 76.4 and the “Inhibition activity Rep 2” value was 44.6. For `O=C(c1ccccc1)N1CC[C@@H]2[C@H]1c1cc(C#CC3CCCCC3)ccc1N[C@@H]2CO` [BRD-K92041481], the “Average Inhibition activity” value was 68.3, the “Inhibition activity Rep 1” value was 57.8 and the “Inhibition activity Rep 2” value was 78.8. In the case of `Cc1ccc(S(=O)(=O)N2CC[C@@H]3[C@H](CO)Nc4ccc(-c5cccc(C(=O)N(C)C)c5)cc4[C@@H]32)cc1` [BRD-K51395794], the “Average Inhibition activity” value is reported as 53.9, the “Inhibition activity Rep 1” value is reported as 46.5 and the “Inhibition activity Rep 2” value is reported as 61.3. In the case of `CN(C)C(=O)c1cccc(-c2ccc3c(c2)[C@@H]2[C@@H](CCN2C(=O)c2ccc4c(c2)OCO4)[C@@H](CO)N3)c1` [BRD-K83829793], the “Average Inhibition activity” value is reported as 53.1, the “Inhibition activity Rep 1” value is reported as 61.0 and the “Inhibition activity Rep 2” value is reported as 45.2. `CN1c2ccc(-c3ccc(C#N)cc3)cc2[C@@H]2[C@@H](CCN2S(=O)(=O)c2cccc(F)c2)[C@H]1CO` [BRD-K40448176] was tested, and the “Average Inhibition activity” value was 51.6, the “Inhibition activity Rep 1” value was 52.1 and the “Inhibition activity Rep 2” value was 51.2. With `O=C(C1CCCCC1)N1CC[C@@H]2[C@H]1c1cc(C#Cc3ccc(F)cc3)ccc1N[C@@H]2CO` [BRD-K88933335] the “Average Inhibition activity” value was 45.7, the “Inhibition activity Rep 1” value was 47.8 and the “Inhibition activity Rep 2” value was 43.7. In the case of `O=C(C1CCCCC1)N1CC[C@@H]2[C@H]1c1cc(Br)ccc1N[C@@H]2CO` [BRD-K20055065], the “Average Inhibition activity” value is reported as 70.7, the “Inhibition activity Rep 1” value is reported as 67.5 and the “Inhibition activity Rep 2” value is reported as 73.9. `O=S(=O)(c1cccc(F)c1)N1CC[C@H]2[C@H](CO)Nc3ccc(C#Cc4ccccc4F)cc3[C@H]21` [BRD-K67297693] was tested, and the “Average Inhibition activity” value was 72.2, the “Inhibition activity Rep 1” value was 64.3 and the “Inhibition activity Rep 2” value was 80.1. `CN1c2ccc(-c3ccccc3F)cc2[C@H]2[C@H](CCN2C(=O)NC2CCCCC2)[C@H]1CO` [BRD-K35104316] was tested, and the “Average Inhibition activity” value was 49.1, the “Inhibition activity Rep 1” value was 54.2 and the “Inhibition activity Rep 2” value was 44.1. In the case of `CN1c2ccc(C#Cc3cccnc3)cc2[C@H]2[C@H](CCN2S(=O)(=O)c2ccccc2F)[C@@H]1CO` [BRD-K58893765], the “Average Inhibition activity” value is reported as 62.6, the “Inhibition activity Rep 1” value is reported as 67.8 and the “Inhibition activity Rep 2” value is reported as 57.4. For `COc1ccc(S(=O)(=O)N2CC[C@@H]3[C@H](CO)N(C)c4ccc(-c5ccccc5F)cc4[C@@H]32)cc1` [BRD-K69451415], the “Average Inhibition activity” value was 53.4, the “Inhibition activity Rep 1” value was 56.2 and the “Inhibition activity Rep 2” value was 50.6. For `CN1c2ccc(C#Cc3cccnc3)cc2[C@H]2[C@H](CCN2C(=O)C2CCCCC2)[C@@H]1CO` [BRD-K89354425], the “Average Inhibition activity” value was 82.0, the “Inhibition activity Rep 1” value was 85.4 and the “Inhibition activity Rep 2” value was 78.7. In the case of `COc1ccc(-c2ccc3c(c2)[C@H]2[C@H](CCN2C(=O)Cc2ccncc2)[C@H](CO)N3)cc1` [BRD-K17925790], the “Average Inhibition activity” value is reported as 51.7, the “Inhibition activity Rep 1” value is reported as 52.6 and the “Inhibition activity Rep 2” value is reported as 50.8. In the case of `CN1c2ccc(C#Cc3ccc(F)cc3)cc2[C@@H]2[C@@H](CCN2C(=O)CN2CCOCC2)[C@H]1CO` [BRD-K82266131], the “Average Inhibition activity” value is reported as 56.9, the “Inhibition activity Rep 1” value is reported as 51.7 and the “Inhibition activity Rep 2” value is reported as 62.1. For `CN1c2ccc(-c3ccccc3F)cc2[C@@H]2[C@@H](CCN2C(=O)NC2CCCCC2)[C@H]1CO` [BRD-K80765942], the “Average Inhibition activity” value was 50.0, the “Inhibition activity Rep 1” value was 50.5 and the “Inhibition activity Rep 2” value was 49.6. With `O=C(CC1CC1)N1CC[C@@H]2[C@H]1c1cc(-c3ccc(F)cc3)ccc1N[C@@H]2CO` [BRD-K03427362] the “Average Inhibition activity” value was 49.4, the “Inhibition activity Rep 1” value was 48.3 and the “Inhibition activity Rep 2” value was 50.6. For `COc1ccc(C#Cc2ccc3c(c2)[C@H]2[C@H](CCN2C(=O)c2ccccc2F)[C@H](CO)N3C)cc1` [BRD-K56594357], the “Average Inhibition activity” value was 57.9, the “Inhibition activity Rep 1” value was 55.8 and the “Inhibition activity Rep 2” value was 59.9.

Same assay, conditions: screen of structural analogs of BRD7087; 15 μM compound, 24 h, U2OS.eGFP.PEST cells; read-out: Average Inhibition activity
In the case of `CN1c2ccc(C#Cc3cccnc3)cc2[C@H]2[C@H](CCN2C(=O)Nc2cc(F)ccc2F)[C@@H]1CO` [BRD0048, (3aS,4R,9bR)—N-(2,5-difluorophenyl)-4-(hydroxymethyl)-5-methyl-8-(pyridin-3-ylethynyl)-2,3,3a,4,5,9b-hexahydro-1H-pyrrolo[3,2-c]quinoline-1-carboxamide], the inhibition at 15 µM is reported as 76.4%.

Same assay, conditions: screen of structural analogs of BRD7087; 15 μM compound, 24 h, U2OS.eGFP.PEST cells; read-out: Inhibition activity Rep 1
With `CN1c2ccc(C#Cc3cccnc3)cc2[C@H]2[C@H](CCN2C(=O)Nc2cc(F)ccc2F)[C@@H]1CO` [BRD0048, (3aS,4R,9bR)—N-(2,5-difluorophenyl)-4-(hydroxymethyl)-5-methyl-8-(pyridin-3-ylethynyl)-2,3,3a,4,5,9b-hexahydro-1H-pyrrolo[3,2-c]quinoline-1-carboxamide] the inhibition at 15 µM was 84.1%.

Same assay, conditions: screen of structural analogs of BRD7087; 15 μM compound, 24 h, U2OS.eGFP.PEST cells; read-out: Inhibition activity Rep 2
For `CN1c2ccc(C#Cc3cccnc3)cc2[C@H]2[C@H](CCN2C(=O)Nc2cc(F)ccc2F)[C@@H]1CO` [BRD0048, (3aS,4R,9bR)—N-(2,5-difluorophenyl)-4-(hydroxymethyl)-5-methyl-8-(pyridin-3-ylethynyl)-2,3,3a,4,5,9b-hexahydro-1H-pyrrolo[3,2-c]quinoline-1-carboxamide], the inhibition at 15 µM was 68.7%.

Same assay, conditions: structural analogs of BRD0539, R2=a, R1 varied
With `Cc1cccc(S(=O)(=O)N2CCC3C(CO)Nc4ccc(-c5ccccc5F)cc4C32)c1` (centres unmarked) [Compound 4] the “decrease of activity with respect to BRD0539” value was 47%.
